From publication PMC11951083, “Highly Specific Miniaturized Fluorescent Monoacylglycerol Lipase Probes Enable Translational Research” (Journal of the American Chemical Society, 2025)

Assays:
MAGL = target: T1, MAGL (Homo sapiens, UniProt Q99685); assay: Native MS (RapidFire) 2-AG substrate assay, purified human MAGL; type: biochemical; conditions: SI Table 1; read-out: IC50 against purified MAGL ± SEM, Human
T1 sequence (Q99685 1-303): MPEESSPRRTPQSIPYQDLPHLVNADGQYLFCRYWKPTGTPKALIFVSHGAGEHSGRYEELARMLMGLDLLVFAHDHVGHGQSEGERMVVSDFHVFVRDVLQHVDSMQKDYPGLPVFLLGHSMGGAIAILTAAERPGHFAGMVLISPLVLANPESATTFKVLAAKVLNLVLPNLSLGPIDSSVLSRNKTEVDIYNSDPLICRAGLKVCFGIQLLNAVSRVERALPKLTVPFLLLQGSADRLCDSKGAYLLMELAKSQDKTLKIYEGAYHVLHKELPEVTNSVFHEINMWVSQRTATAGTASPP
Procedure: (§1) In vitro MAGL Inhibition Assay
(§2) Compounds were profiled for MAGL inhibitory activity by determining the enzymatic activity by following the hydrolysis of the natural substrate 2-arachidonoylglycerol (2-AG), resulting in arachidonic acid, which can be followed by mass spectrometry. The 2-AG assay was carried out in 384 well assay plates (PP, Greiner Cat# 784201) in a total volume of 20 µL. Compound dilutions were made in 100% DMSO (VWR Chemicals 23500.297) in a polypropylene plate in 3-fold dilution steps to give a final concentration range in the assay from 12.5 µM to 0.8 pM. 0.25µL compound dilutions (100% DMSO) were added to 9 µL MAGL in assay buffer (50 mM TRIS (GIBCO, 15567-027), 1 mM EDTA (Fluka, 03690-100 mL), 0.01% (v/v) Tween. After shaking, the plate was incubated for 15 min at RT. To start the reaction, 10 µL 2-arachidonoylglycerol in assay buffer was added. The final concentrations in the assay were 50 pM MAGL and 8 µM 2-arachidonoylglyerol. After shaking and 30 min incubation at RT, the reaction was quenched by the addition of 40µL of ACN containing 4µM of d8-arachidonic acid. The amount of arachidonic acid was traced by an online SPE system (Agilent Rapidfire) coupled to a triple quadrupole mass spectrometer (Agilent 6460). A C18 SPE cartridge (G9205A) was used in an ACN/water liquid setup. The mass spectrometer was operated in negative electrospray mode following the mass transitions 303.1 → 259.1 for arachidonic acid and 311.1 → 267.0 for d8-arachidonic acid. The activity of the compounds was calculated based on the ratio of intensities [arachidonic acid / d8-arachidonic acid]. The lowest IC50 value that can be determined with high accuracy is approximately 0.025 nM.

mMAGL = target: T2, mMAGL (Mus musculus, UniProt O35678); assay: Native MS (RapidFire) 2-AG substrate assay, purified mouse MAGL; type: biochemical; conditions: SI Table 1; read-out: IC50 against purified MAGL ± SEM, Mouse
T2 sequence (O35678 1-303): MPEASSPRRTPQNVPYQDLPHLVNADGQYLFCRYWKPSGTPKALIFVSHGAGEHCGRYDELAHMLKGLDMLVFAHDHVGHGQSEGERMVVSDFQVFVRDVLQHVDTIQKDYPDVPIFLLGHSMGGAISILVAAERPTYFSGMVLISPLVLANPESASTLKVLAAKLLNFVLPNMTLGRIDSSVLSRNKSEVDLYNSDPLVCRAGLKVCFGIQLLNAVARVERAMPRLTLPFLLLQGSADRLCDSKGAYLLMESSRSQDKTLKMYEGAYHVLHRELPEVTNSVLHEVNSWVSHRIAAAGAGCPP
Procedure: as §1, §2

[1] = target: NanoLuc luciferase MAGL fusion protein; assay: Cellular MAGL NanoBRET target engagement assay in live HEK293 cells; type: cell-based; conditions: SI Table 1, live HEK293 cells; read-out: NanoBRET IC50 ± SEM, HEK293
Procedure: This assay was performed as first described before.20
Compounds were profiled by a novel cellular MAGL NanoBRET™ Target Engagement assay, which measures the apparent affinity of test compounds by competitive displacement of a Roche -developed Tracer (WO2021058443, Example 2 121, or probe 4a, respectively), reversibly bound to a NanoLuc ® luciferase MAGL fusion protein in cells.
A HEK293A stable cell line expressing NanoLuc_MAGL was established at Roche and assigned as HEK293A_NanoLuc_MAGL clone #43. A fixed concentration of tracer is added to cells expressing the NanoLuc®_MAGL fusion protein to generate a BRET reporter complex. The introduction of competing compounds results in a dose -dependent decrease in NanoBRET™ energy transfer, which allows quantification of the intracellular affinity of the target protein for the test compound.
HEK293A_NanoLuc_MAGL clone #43 cells were cultured in DMEM (Gibco 31966) with 10% FBS and 800 ug/ml G418. The NanoBRET assay was performed by seeding 5000 cells/well in Costar low - volume white 384-well plate in assay buffer (1% FBS in HBSS), followed by adding the tracer (50 nM Example 21 or 100 nM 4a final concentration) and serial dilutions of test compounds. After 2 hours of incubation, Nanoluciferase substrates and extracellular inhibitors were added following the manufacturer's protocol (Promega, #N2520), and the NanoBRET signaling were quantified with the Paradigm (Molecular Devices).

rMAGL = target: T3, rMAGL (Rattus norvegicus, UniProt Q8R431); assay: Native MS (RapidFire) 2-AG substrate assay, purified rat MAGL; type: biochemical; conditions: SI Table 1; read-out: IC50 against purified MAGL ± SEM, Rat
T3 sequence (Q8R431 1-303): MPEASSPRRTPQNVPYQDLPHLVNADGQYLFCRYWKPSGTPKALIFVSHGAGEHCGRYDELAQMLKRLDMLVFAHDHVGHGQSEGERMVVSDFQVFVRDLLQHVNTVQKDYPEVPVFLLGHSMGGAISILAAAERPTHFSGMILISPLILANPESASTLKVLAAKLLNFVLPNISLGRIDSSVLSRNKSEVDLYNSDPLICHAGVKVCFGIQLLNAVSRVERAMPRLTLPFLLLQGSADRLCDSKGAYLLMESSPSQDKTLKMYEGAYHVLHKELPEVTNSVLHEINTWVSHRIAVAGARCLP
Procedure: as §1, §2

cMAGL = target: T4, cMAGL (Macaca fascicularis, UniProt A0A2K5V664); assay: Native MS (RapidFire) 2-AG substrate assay, purified cynomolgus monkey MAGL; type: biochemical; conditions: SI Table 1; read-out: IC50 against purified MAGL ± SEM, Cynomolgus
T4 sequence (A0A2K5V664 11-297): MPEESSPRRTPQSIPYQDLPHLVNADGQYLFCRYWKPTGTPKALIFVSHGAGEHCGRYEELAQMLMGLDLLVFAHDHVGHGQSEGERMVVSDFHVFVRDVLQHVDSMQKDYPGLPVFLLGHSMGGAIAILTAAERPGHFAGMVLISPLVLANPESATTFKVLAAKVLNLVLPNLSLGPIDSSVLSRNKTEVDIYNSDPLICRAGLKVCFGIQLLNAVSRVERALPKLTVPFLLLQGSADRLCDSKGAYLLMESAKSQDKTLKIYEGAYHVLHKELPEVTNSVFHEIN
Procedure: as §1, §2

IC50 (MAGL)	IC50 (mMAGL)	IC50 [1]	IC50 (rMAGL)	IC50 (cMAGL)	Compound
500 nM	1040 nM	> 10000 nM	–	–	O=C1CO[C@H]2CCN(C(=O)N3C[C@@H]4[C@@H](COC5=C6C=CC=[N+]6[B-](F)(F)n6cccc65)[C@@H]4C3)C[C@H]2N1 [Compound S3]
3.82 ± 1.91 nM	7.06 ± 4.73 nM	4630 ± 52 nM	21.6 nM	8.37 nM	O=C1CO[C@H]2CCN(C(=O)N3CC4(CCC(OC5=C6C=CC=[N+]6[B-](F)(F)n6cccc65)CC4)C3)C[C@H]2N1 [Compound S4]
45 nM	170 nM	> 10000 nM	–	–	O=C1CO[C@H]2CCN(C(=O)N3CCC4(CC3)CC(OC3=C5C=CC=[N+]5[B-](F)(F)n5cccc53)C4)C[C@H]2N1 [Compound S6]
3.99 nM	13.6 nM	> 10000 nM	–	–	O=C1NC2(CO1)CN(C(=O)N1CCC3(CC1)CC(OC1=C4C=CC=[N+]4[B-](F)(F)n4cccc41)C3)C2 [Compound S8]
1680 nM	3400 nM	> 10000 nM	–	–	O=C1CO[C@H]2CCN(C(=O)N3CCC(=CC4=C5C=CC=[N+]5[B-](F)(F)n5cccc54)CC3)C[C@H]2N1 [Compound S10]
2.35 nM	12.4 nM	564 nM	10.9 nM	2.73 nM	O=C1CO[C@H]2CCN(C(=O)N3CC4(CCC(CC5=C6C=CC=[N+]6[B-](F)(F)n6cccc65)CC4)C3)C[C@H]2N1 [Compound S12]
43.3 nM	182 nM	> 10000 nM	–	–	O=C1CO[C@H]2CCN(C(=O)N3CC4(CC(=CC5=C6C=CC=[N+]6[B-](F)(F)n6cccc65)C4)C3)C[C@H]2N1 [Compound S13]
12.6 nM	12.4 nM	> 10000 nM	–	–	O=C1NC2(CO1)CN(C(=O)N1CC3(CC(=CC4=C5C=CC=[N+]5[B-](F)(F)n5cccc54)C3)C1)C2 [Compound S14]
1.26 nM	1.36 nM	5540 nM	4.46 nM	3.27 nM	O=C1NC2(CO1)CN(C(=O)N1CC3(CC(CC4=C5C=CC=[N+]5[B-](F)(F)n5cccc54)C3)C1)C2 [Compound S15]
0.67 nM	0.81 nM	574 nM	–	–	O=C1NC2(CO1)CN(C(=O)N1CC3(CCC(=CC4=C5C=CC=[N+]5[B-](F)(F)n5cccc54)CC3)C1)C2 [Compound S16]
1.01 nM	0.84 nM	300 nM	–	–	O=C1N[C@H](CCC(=O)N2CC3(CC(CC4=C5C=CC=[N+]5[B-](F)(F)n5cccc54)C3)C2)CO1 [Compound S17]
1.98 nM	2.07 nM	1940 nM	–	–	NC(=O)[C@H]1CCN(C(=O)N2CC3(CC(CC4=C5C=CC=[N+]5[B-](F)(F)n5cccc54)C3)C2)C1 [Compound S18]
7.5 nM	18.6 nM	299 nM	–	–	O=C1COc2ccc(C(=O)N3CC4(CC(CC5=C6C=CC=[N+]6[B-](F)(F)n6cccc65)C4)C3)cc2N1 [Compound S19]
17.2 nM	108 nM	> 10000 nM	–	–	Cc1ccc2oc(N3CCN(C(=O)N4CC5(CC(CC6=C7C=CC=[N+]7[B-](F)(F)n7cccc76)C5)C4)CC3)nc2n1 [Compound S20]
0.66 nM	0.37 nM	56 ± 6 nM	–	–	O=C1CO[C@H]2CCN(C(=O)N3CC4(CC(CC5=C6C=CC(c7ccccc7)=[N+]6[B-](F)(F)n6cccc65)C4)C3)C[C@H]2N1 [Compound S22]
